The values below come from ChEMBL document CHEMBL5500328, “Comprehensive review on the elaboration of payloads derived from natural products for antibody-drug conjugates” (Eur J Med Chem, 2024).

SMILES strings stand for the structures.

Assay [1] can be described thus: Cytotoxicity against human L540cy assessed as reduction in cell growth incubated for 4 days by CellTiter-Glo assay. In kind it is functional, cell-based. The note with it: 96 h. For orientation: In ATP-based viability assays light output follows the ATP content of the culture.
The next assay has as its system KB. Kind of assay: Cytotoxicity against human KB cells assessed as reduction in cell viability. In kind it is functional, cell-based.
A further assay deals with LoVo. Kind of assay: Cytotoxicity against human LoVo cells. Format: functional, cell-based.
The subject of another assay is KB 3-1. Kind of assay: Cytotoxicity against human KB-3-1 cells assessed as inhibition of cell growth. Format: functional, cell-based.
The next assay addresses Tubulin. Description: Binding affinity to tubulin (unknown origin) assessed as dissociation constant by SPR analysis. In kind it is protein-complex assay, Homo sapiens.
Another assay has as its system CCRF-CEM. Kind of assay: Cytotoxicity against human CCRF-CEM cells assessed as reduction in cell growth. In kind it is functional, cell-based.

`CC[C@@]1(O)C(=O)OCc2c1cc1n(c2=O)Cc2cc3c(CN)c4c(cc3nc2-1)OCO4`: the IC50 (commonly the point on the concentration scale where inhibition reaches its midpoint) in assay [1] came out at 1 nM.
Consider `COc1ccc(C[C@H]2NC(=O)/C=C/C[C@@H]([C@H](C)[C@H]3O[C@H]3c3ccccc3)OC(=O)[C@H](CC(C)C)OC(=O)[C@H](C)CNC2=O)cc1Cl` [CRYPTOPHYCIN 39], for which the IC50 in the assay on KB is 4.58 pM; in the assay on LoVo, 7.63 pM.
Take `COc1ccc(C[C@H]2NC(=O)/C=C/C[C@@H]([C@H](C)[C@H]3O[C@H]3c3ccccc3)OC(=O)[C@H](CC(C)C)OC(=O)C(C)(C)CNC2=O)cc1Cl`: the IC50 with KB 3-1 is 0.015 nM. Moreover, the Kd (usually the equilibrium constant for the complex coming apart) at Tubulin is 47 nM.
Turning to `COc1ccc(C[C@H]2NC(=O)/C=C/C[C@@H]([C@H](C)[C@H]3O[C@H]3c3ccc(F)cc3)OC(=O)[C@H](CC(C)C)OC(=O)C(C)(C)CNC2=O)cc1Cl`, in the assay on CCRF-CEM, the IC50 was found to be 0.033 nM.
